Experimental data from the supplement of paper PMC10307832.

Columns and labels:
Assay in all cases: relative viability (nuclei count vs DMSO), 5 days (fraction); higher = more cells survive
Elesclomol + Trametinib = compound: CN(NC(=O)CC(=O)NN(C)C(=S)c1ccccc1)C(=S)c1ccccc1 [Elesclomol] + CC(=O)Nc1cccc(-n2c(=O)n(C3CC3)c(=O)c3c(Nc4ccc(I)cc4F)n(C)c(=O)c(C)c32)c1 [Trametinib] (partner 0.02 µM)
Summary of the method: (§1)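 Relative viability is defined as nuclei in treated wells over nuclei in vehicle wells. Duplicate plates were run and medians reported. Lung cancer cell lines in 1536-well plates were dosed by pin tool one day after seeding, with one drug or with a fixed anchor-drug dose plus five library-drug doses (not always all listed) in √10 steps, and nuclei were counted after 5 days.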

Elesclomol + AZD7762 = compound: CN(NC(=O)CC(=O)NN(C)C(=S)c1ccccc1)C(=S)c1ccccc1 [Elesclomol] + NC(=O)Nc1cc(-c2cccc(F)c2)sc1C(=O)N[C@H]1CCCNC1 [AZD7762] (partner 0.2 µM)
Summary of the method: as §1

Elesclomol + OSI-027 = compound: CN(NC(=O)CC(=O)NN(C)C(=S)c1ccccc1)C(=S)c1ccccc1 [Elesclomol] + COc1cccc2cc(-c3nc([C@H]4CC[C@H](C(=O)O)CC4)n4ncnc(N)c34)[nH]c12 [OSI-027] (partner 0.5 µM)
Summary of the method: as §1

Elesclomol + Pemetrexed = compound: CN(NC(=O)CC(=O)NN(C)C(=S)c1ccccc1)C(=S)c1ccccc1 [Elesclomol] + Nc1nc2[nH]cc(CCc3ccc(C(=O)N[C@@H](CCC(=O)O)C(=O)O)cc3)c2c(=O)[nH]1 [Pemetrexed] (partner 0.2 µM)
Summary of the method: as §1

Elesclomol + Olaparib = compound: CN(NC(=O)CC(=O)NN(C)C(=S)c1ccccc1)C(=S)c1ccccc1 [Elesclomol] + O=C(c1cc(Cc2n[nH]c(=O)c3ccccc23)ccc1F)N1CCN(C(=O)C2CC2)CC1 [Olaparib] (partner 8 µM)
Summary of the method: as §1

Elesclomol + Decitabine = compound: CN(NC(=O)CC(=O)NN(C)C(=S)c1ccccc1)C(=S)c1ccccc1 [Elesclomol] + Nc1ncn([C@H]2C[C@H](O)[C@@H](CO)O2)c(=O)n1 [Decitabine] (partner 2 µM)
Summary of the method: as §1

Elesclomol + Palbociclib = compound: CN(NC(=O)CC(=O)NN(C)C(=S)c1ccccc1)C(=S)c1ccccc1 [Elesclomol] + CC(=O)c1c(C)c2cnc(Nc3ccc(N4CCNCC4)cn3)nc2n(C2CCCC2)c1=O [Palbociclib] (partner 0.5 µM)
Summary of the method: as §1

Elesclomol + Vorinostat = compound: CN(NC(=O)CC(=O)NN(C)C(=S)c1ccccc1)C(=S)c1ccccc1 [Elesclomol] + O=C(CCCCCCC(=O)Nc1ccccc1)NO [Vorinostat] (partner 1 µM)
Summary of the method: as §1

Elesclomol + Tozasertib = compound: CN(NC(=O)CC(=O)NN(C)C(=S)c1ccccc1)C(=S)c1ccccc1 [Elesclomol] + Cc1cc(Nc2cc(N3CCN(C)CC3)nc(Sc3ccc(NC(=O)C4CC4)cc3)n2)n[nH]1 [Tozasertib] (partner 0.1 µM)
Summary of the method: as §1

Elesclomol = compound: CN(NC(=O)CC(=O)NN(C)C(=S)c1ccccc1)C(=S)c1ccccc1 [Elesclomol]
Summary of the method: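 For viability, nuclei in each treated well were divided by nuclei in vehicle wells and the median across plates was taken. Lung cancer cell lines in 1536-well plates were pinned with five library-drug doses (not always all listed) spaced by √10, cultured 5 days without medium change, and imaged at 4× after Hoechst staining, with plates passing only at control CV below 25% and at least one doubling.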

Elesclomol + Pictilisib = compound: CN(NC(=O)CC(=O)NN(C)C(=S)c1ccccc1)C(=S)c1ccccc1 [Elesclomol] + CS(=O)(=O)N1CCN(Cc2cc3nc(-c4cccc5[nH]ncc45)nc(N4CCOCC4)c3s2)CC1 [Pictilisib] (partner 1 µM)
Summary of the method: as §1

Elesclomol + Lapatinib = compound: CN(NC(=O)CC(=O)NN(C)C(=S)c1ccccc1)C(=S)c1ccccc1 [Elesclomol] + CS(=O)(=O)CCNCc1ccc(-c2ccc3ncnc(Nc4ccc(OCc5cccc(F)c5)c(Cl)c4)c3c2)o1 [Lapatinib] (partner 2 µM)
Summary of the method: as §1

Elesclomol + Foretinib = compound: CN(NC(=O)CC(=O)NN(C)C(=S)c1ccccc1)C(=S)c1ccccc1 [Elesclomol] + COc1cc2c(Oc3ccc(NC(=O)C4(C(=O)Nc5ccc(F)cc5)CC4)cc3F)ccnc2cc1OCCCN1CCOCC1 [Foretinib] (partner 0.25 µM)
Summary of the method: as §1

Elesclomol + Bortezomib = compound: CN(NC(=O)CC(=O)NN(C)C(=S)c1ccccc1)C(=S)c1ccccc1 [Elesclomol] + CC(C)C[C@H](NC(=O)[C@H](Cc1ccccc1)NC(=O)c1cnccn1)B(O)O [Bortezomib] (partner 0.002 µM)
Summary of the method: as §1

Elesclomol + Linsitinib = compound: CN(NC(=O)CC(=O)NN(C)C(=S)c1ccccc1)C(=S)c1ccccc1 [Elesclomol] + C[C@]1(O)C[C@@H](c2nc(-c3ccc4ccc(-c5ccccc5)nc4c3)c3c(N)nccn32)C1 [Linsitinib] (partner 1 µM)
Summary of the method: as §1

Elesclomol + Navitoclax = compound: CN(NC(=O)CC(=O)NN(C)C(=S)c1ccccc1)C(=S)c1ccccc1 [Elesclomol] + CC1(C)CCC(c2ccc(Cl)cc2)=C(CN2CCN(c3ccc(C(=O)NS(=O)(=O)c4ccc(N[C@H](CCN5CCOCC5)CSc5ccccc5)c(S(=O)(=O)C(F)(F)F)c4)cc3)CC2)C1 [Navitoclax] (partner 0.5 µM)
Summary of the method: as §1

Elesclomol + Alpelisib = compound: CN(NC(=O)CC(=O)NN(C)C(=S)c1ccccc1)C(=S)c1ccccc1 [Elesclomol] + Cc1nc(NC(=O)N2CCC[C@H]2C(N)=O)sc1-c1ccnc(C(C)(C)C(F)(F)F)c1 [Alpelisib] (partner 2 µM)
Summary of the method: as §1

Elesclomol + Crizotinib = compound: CN(NC(=O)CC(=O)NN(C)C(=S)c1ccccc1)C(=S)c1ccccc1 [Elesclomol] + C[C@@H](Oc1cc(-c2cnn(C3CCNCC3)c2)cnc1N)c1c(Cl)ccc(F)c1Cl [Crizotinib] (partner 1 µM)
Summary of the method: as §1

For NCI-H1648, the relative viability (Elesclomol + Trametinib; first compound 0.003162 µM) was 0.555, the relative viability (Elesclomol + Trametinib; first compound 0.01 µM) was 0.415 and the relative viability (Elesclomol + Trametinib; first compound 0.03162 µM) was 0.46. The relative viability (Elesclomol + Trametinib; first compound 0.1 µM) was 0.39, the relative viability (Elesclomol + AZD7762; first compound 0.003162 µM) was 0.581 and the relative viability (Elesclomol + AZD7762; first compound 0.01 µM) was 0.686. The relative viability (Elesclomol + AZD7762; first compound 0.03162 µM) was 0.61, the relative viability (Elesclomol + AZD7762; first compound 0.1 µM) was 0.622 and the relative viability (Elesclomol + OSI-027; first compound 0.003162 µM) was 0.263. The relative viability (Elesclomol + OSI-027; first compound 0.01 µM) was 0.276, the relative viability (Elesclomol + OSI-027; first compound 0.03162 µM) was 0.224 and the relative viability (Elesclomol + OSI-027; first compound 0.1 µM) was 0.295. The relative viability (Elesclomol + Pemetrexed; first compound 0.003162 µM) was 0.7, the relative viability (Elesclomol + Pemetrexed; first compound 0.01 µM) was 0.599 and the relative viability (Elesclomol + Pemetrexed; first compound 0.03162 µM) was 0.752. For the same cell line, the relative viability (Elesclomol + Pemetrexed; first compound 0.1 µM) was 0.673, the relative viability (Elesclomol + Olaparib; first compound 0.003162 µM) was 0.675 and the relative viability (Elesclomol + Olaparib; first compound 0.01 µM) was 0.753. It also gave a relative viability (Elesclomol + Olaparib; first compound 0.03162 µM) of 0.835, a relative viability (Elesclomol + Olaparib; first compound 0.1 µM) of 0.796 and a relative viability (Elesclomol + Decitabine; first compound 0.003162 µM) of 0.551. For the same cell line, the relative viability (Elesclomol + Decitabine; first compound 0.01 µM) was 0.469, the relative viability (Elesclomol + Decitabine; first compound 0.03162 µM) was 0.509 and the relative viability (Elesclomol + Decitabine; first compound 0.1 µM) was 0.453. It also gave a relative viability (Elesclomol + Palbociclib; first compound 0.003162 µM) of 0.301, a relative viability (Elesclomol + Palbociclib; first compound 0.01 µM) of 0.285 and a relative viability (Elesclomol + Palbociclib; first compound 0.03162 µM) of 0.266. It also gave a relative viability (Elesclomol + Palbociclib; first compound 0.1 µM) of 0.253, a relative viability (Elesclomol + Vorinostat; first compound 0.003162 µM) of 0.338 and a relative viability (Elesclomol + Vorinostat; first compound 0.01 µM) of 0.416. It also gave a relative viability (Elesclomol + Vorinostat; first compound 0.03162 µM) of 0.385, a relative viability (Elesclomol + Vorinostat; first compound 0.1 µM) of 0.313 and a relative viability (Elesclomol + Tozasertib; first compound 0.003162 µM) of 0.379. The relative viability (Elesclomol + Tozasertib; first compound 0.01 µM) was 0.409, the relative viability (Elesclomol + Tozasertib; first compound 0.03162 µM) was 0.506 and the relative viability (Elesclomol + Tozasertib; first compound 0.1 µM) was 0.54. It also gave a relative viability (Elesclomol; 0.003162 µM) of 0.606, a relative viability (Elesclomol; 0.01 µM) of 0.725 and a relative viability (Elesclomol; 0.03162 µM) of 0.827. It also gave a relative viability (Elesclomol; 0.1 µM) of 0.76.
In the case of EBC-1, the relative viability (Elesclomol + Pictilisib; first compound 0.003162 µM) is reported as 0.335, the relative viability (Elesclomol + Pictilisib; first compound 0.01 µM) is reported as 0.17 and the relative viability (Elesclomol + Pictilisib; first compound 0.03162 µM) is reported as 0.156. It also gave a relative viability (Elesclomol + Pictilisib; first compound 0.1 µM) of 0.148, a relative viability (Elesclomol + Lapatinib; first compound 0.003162 µM) of 0.239 and a relative viability (Elesclomol + Lapatinib; first compound 0.01 µM) of 0.183. The relative viability (Elesclomol + Lapatinib; first compound 0.03162 µM) was 0.177, the relative viability (Elesclomol + Lapatinib; first compound 0.1 µM) was 0.157 and the relative viability (Elesclomol + Foretinib; first compound 0.003162 µM) was 0.11. For the same cell line, the relative viability (Elesclomol + Foretinib; first compound 0.01 µM) was 0.1, the relative viability (Elesclomol + Foretinib; first compound 0.03162 µM) was 0.0784 and the relative viability (Elesclomol + Foretinib; first compound 0.1 µM) was 0.0763. The relative viability (Elesclomol + Bortezomib; first compound 0.003162 µM) was 0.497, the relative viability (Elesclomol + Bortezomib; first compound 0.01 µM) was 0.436 and the relative viability (Elesclomol + Bortezomib; first compound 0.03162 µM) was 0.208. It also gave a relative viability (Elesclomol + Bortezomib; first compound 0.1 µM) of 0.156, a relative viability (Elesclomol + Linsitinib; first compound 0.003162 µM) of 0.892 and a relative viability (Elesclomol + Linsitinib; first compound 0.01 µM) of 0.614. The relative viability (Elesclomol + Linsitinib; first compound 0.03162 µM) was 0.484, the relative viability (Elesclomol + Linsitinib; first compound 0.1 µM) was 0.227 and the relative viability (Elesclomol + Olaparib; first compound 0.003162 µM) was 0.655. For the same cell line, the relative viability (Elesclomol + Olaparib; first compound 0.01 µM) was 0.544, the relative viability (Elesclomol + Olaparib; first compound 0.03162 µM) was 0.487 and the relative viability (Elesclomol + Olaparib; first compound 0.1 µM) was 0.291. It also gave a relative viability (Elesclomol + Navitoclax; first compound 0.003162 µM) of 0.374, a relative viability (Elesclomol + Navitoclax; first compound 0.01 µM) of 0.228 and a relative viability (Elesclomol + Navitoclax; first compound 0.03162 µM) of 0.146. For the same cell line, the relative viability (Elesclomol + Navitoclax; first compound 0.1 µM) was 0.132, the relative viability (Elesclomol + Alpelisib; first compound 0.003162 µM) was 0.733 and the relative viability (Elesclomol + Alpelisib; first compound 0.01 µM) was 0.354. The relative viability (Elesclomol + Alpelisib; first compound 0.03162 µM) was 0.268, the relative viability (Elesclomol + Alpelisib; first compound 0.1 µM) was 0.206 and the relative viability (Elesclomol + Crizotinib; first compound 0.003162 µM) was 0.18. For the same cell line, the relative viability (Elesclomol + Crizotinib; first compound 0.01 µM) was 0.199, the relative viability (Elesclomol + Crizotinib; first compound 0.03162 µM) was 0.151 and the relative viability (Elesclomol + Crizotinib; first compound 0.1 µM) was 0.135. It also gave a relative viability (Elesclomol; 0.003162 µM) of 0.983, a relative viability (Elesclomol; 0.01 µM) of 0.74 and a relative viability (Elesclomol; 0.03162 µM) of 0.506. For the same cell line, the relative viability (Elesclomol; 0.1 µM) was 0.349.
